Values of other authors, collected in US20120128764A1, “CONTROLLED-RELEASE COMPOSITIONS COMPRISING A PROTON PUMP INHIBITOR” (Aptalis Pharmatech, Inc., priority 2009, published 2012).

Key:
[1] = not given; remark: listed apart in the source

Row | Compound | mean Tmax (after oral administration) | half-life (t1/2) (elimination) | accumulation upon multiple dosing (multiple dosing) | dose proportionality of Cmax and AUC (over 10 mg to 80 mg doses) | solubility in phosphate buffer ([1]; phosphate buffer at pH 7.4) | solubility in water ([1]; water)
1 | COc1ccnc(C[S+]([O-])c2nc3ccc(OC(F)F)cc3[nH]2)c1OC (stereo not drawn) [Pantoprazole, 5-(difluoromethoxy)-2-[(3,4-dimethoxypyridin-2-yl)methylsulfinyl]-3H-benzoimidazole] | approximately 90 minutes | 1.8 h | does not accumulate | dose proportional | – | –
2 | COc1ccnc(C[S+]([O-])c2nc3ccc(OC(F)F)cc3[nH]2)c1OC (stereo not drawn) [Pantoprazole sodium sesquihydrate] | – | – | – | – | very slightly soluble | freely soluble
